SMILES strings stand for the structures. pEC50: −log10 of the molar value. Where only a bound is given, the exact number is not on record here.

For the experiment, the target named is human 5-HT2C(VSV) (Homo sapiens, UniProt P28335, I156V/I160V/N158S). The experiment can be described thus: cell-based.
human 5-HT2C(VSV), sequence (P28335 33-458 I156V/N158S/I160V limits assumed): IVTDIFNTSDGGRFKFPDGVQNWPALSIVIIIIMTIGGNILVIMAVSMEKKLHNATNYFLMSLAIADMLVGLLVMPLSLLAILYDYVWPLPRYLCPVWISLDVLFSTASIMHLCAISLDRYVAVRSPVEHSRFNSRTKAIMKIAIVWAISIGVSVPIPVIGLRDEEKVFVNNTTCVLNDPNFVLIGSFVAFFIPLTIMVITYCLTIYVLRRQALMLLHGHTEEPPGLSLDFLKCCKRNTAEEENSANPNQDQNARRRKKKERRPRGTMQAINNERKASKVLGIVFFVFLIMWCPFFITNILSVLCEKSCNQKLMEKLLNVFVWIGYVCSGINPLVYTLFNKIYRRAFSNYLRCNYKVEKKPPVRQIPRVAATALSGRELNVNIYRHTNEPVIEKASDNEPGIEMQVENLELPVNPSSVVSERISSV
As to `COc1c(F)ccc2c1c(CCNC(CO)c1ccccc1)cn2C` (stereo not drawn) [34-9, 2-(2-(5-fluoro-4-methoxy-1-methyl-1H-indol-3-yl)ethylamino)-2-phenylethanol], the negative-log EC50 (pEC50) is 6.30 to 9.00.
Regarding `COc1c(F)ccc2c1c(CCNc1cccc(N3CCN(C)CC3)c1)cn2C` [17-18, N-(2-(5-fluoro-4-methoxy-1-methyl-1H-indol-3-yl)ethyl)-3-(4-methylpiperazin-1-yl)aniline], the pEC50 is 6.30 to 9.00.
With `CNCCc1cn(C)c2cc(F)cc(OCc3ccccc3Cl)c12` [33-44, 2-(4-(2-chlorobenzyloxy)-6-fluoro-1-methyl-1H-indol-3-yl)-N-methylethanamine] the figure was 6.30 to 9.00.
For `CCn1cc(C2CCCNC2)c2c(O)cc(F)cc21` (stereo not drawn) [38-4, 1-ethyl-6-fluoro-3-(piperidin-3-yl)-1H-indol-4-ol] the value was 6.30 to 9.00; for `CCn1cc(CCNCCc2ccccc2)c2c(OCc3ccccc3)cc(F)cc21` [26-9, 2-(4-(benzyloxy)-1-ethyl-6-fluoro-1H-indol-3-yl)-N-phenethylethanamine], 5.00 to 6.30.
With `CCOc1c(F)ccc2c1c(CCNC1Cc3ccccc3C1)cn2C` [30-16, N-(2-(4-ethoxy-5-fluoro-1-methyl-1H-indol-3-yl)ethyl)-2,3-dihydro-1H-inden-2-amine] the figure was 6.30 to 9.00.
In turn, `CCn1cc(CCN2CCC(F)(F)C2)c2c(O)cc(F)cc21` [11-14, 3-(2-(3,3-difluoropyrrolidin-1-yl)ethyl)-1-ethyl-6-fluoro-1H-indol-4-ol] had a pEC50 of 5.00 to 6.30.
The molecule `CCn1cc(CCN2CCCOCC2)c2c(O)cc(F)cc21` [11-12, 3-(2-(1,4-oxazepan-4-yl)ethyl)-1-ethyl-6-fluoro-1H-indol-4-ol] showed a pEC50 of 5.00 to 6.30.
Regarding `CNCCc1cn(C)c2ccc(F)c(OCc3cccc(C(F)(F)F)c3)c12` [33-21, 2-(5-fluoro-1-methyl-4-(3-(trifluoromethyl)benzyloxy)-1H-indol-3-yl)-N-methylethanamine], the pEC50 was 6.30 to 9.00.
For `CNCCc1cn(C)c2c(F)cc(-c3ccccc3)c(OC)c12` [22-5, 2-(7-fluoro-4-methoxy-1-methyl-5-phenyl-1H-indol-3-yl)-N-methylethanamine] the value was 6.30 to 9.00; for `CCCn1cc(CCNC)c2c(OCc3cccc4ccccc34)c(F)ccc21` [33-39, 2-(5-fluoro-4-(naphthalen-1-ylmethoxy)-1-propyl-1H-indol-3-yl)-N-methylethanamine], 6.30 to 9.00.
`CNCCc1cn(C)c2ccc(F)c(OCc3ccccc3C(F)(F)F)c12` [33-31, 2-(5-fluoro-1-methyl-4-(2-(trifluoromethyl)benzyloxy)-1H-indol-3-yl)-N-methylethanamine] gave a pEC50 of 6.30 to 9.00.
On to `CCn1cc(CCNCCc2cccc(C(F)(F)F)c2)c2c(O)cc(F)cc21` [26-10, 1-ethyl-6-fluoro-3-(2-(3-(trifluoromethyl)phenethylamino)ethyl)-1H-indol-4-ol], for which the negative logarithm of the EC50 (pEC50) is 6.30 to 9.00.
Consider `CCn1cc(CCNCc2ccccc2)c2c(OC)ccc(F)c21` [20-4, N-benzyl-2-(1-ethyl-7-fluoro-4-methoxy-1H-indol-3-yl)ethanamine], for which the negative-log EC50 (pEC50) was 6.30 to 9.00.
In the case of `CCn1cc(CCNCc2cccc(Cl)c2)c2c(O)cc(F)cc21` [31-11, 3-(2-(3-chlorobenzylamino)ethyl)-1-ethyl-6-fluoro-1H-indol-4-ol], the pEC50 is 6.30 to 9.00.
In the case of `CCOc1c(F)ccc2c1c(CCNCc1ccccc1C(F)(F)F)cn2C` [30-21, 2-(4-ethoxy-5-fluoro-1-methyl-1H-indol-3-yl)-N-(2-(trifluoromethyl)benzyl)ethanamine], the negative-log EC50 (pEC50) is 6.30 to 9.00.
With `CN(C)CCc1cn(Cc2ccccc2)c2c(F)ccc(O)c12` [7-3, 1-benzyl-3-(2-(dimethylamino)ethyl)-7-fluoro-1H-indol-4-ol] the figure was 5.00 to 6.30; with `CNCCc1cn(C)c2ccc(F)c(OCc3ccc(Cl)cc3)c12` [33-20, 2-(4-(4-chlorobenzyloxy)-5-fluoro-1-methyl-1H-indol-3-yl)-N-methylethanamine], 6.30 to 9.00; with `NCCc1cn(CC2COc3ccccc3O2)c2ccc(F)c(O)c12` (stereo not drawn) [19-5, 3-(2-aminoethyl)-1-((2,3-dihydrobenzo[b][1,4]dioxin-2-yl)methyl)-5-fluoro-1H-indol-4-ol], 6.30 to 9.00.
With `CCn1cc(CCNCc2cccc(C(F)(F)F)c2)c2c(OCc3ccccc3)cc(F)cc21` [31-8, 2-(4-(benzyloxy)-1-ethyl-6-fluoro-1H-indol-3-yl)-N-(3-(trifluoromethyl)benzyl)ethanamine] the figure was 5.00 to 6.30; with `CNCCc1cn(C)c2ccc(F)c(OCc3ccccc3C)c12` [33-22, 2-(5-fluoro-1-methyl-4-(2-methylbenzyloxy)-1H-indol-3-yl)-N-methylethanamine], 6.30 to 9.00; with `COc1c(F)ccc2c1c(CCN[C@H]1CCCc3ccccc31)cn2C` [17-16, (S)-N-(2-(5-fluoro-4-methoxy-1-methyl-1H-indol-3-yl)ethyl)-1,2,3,4-tetrahydronaphthalen-1-amine], 6.30 to 9.00.
As for `CNCCc1cn(C)c2ccc(F)c(OCc3ccc(Cl)c(OC(F)(F)F)c3)c12` [33-49, 2-(4-(4-chloro-3-(trifluoromethoxy)benzyloxy)-5-fluoro-1-methyl-1H-indol-3-yl)-N-methylethanamine], the pEC50 was > 5.00.
For `CCn1cc(CCN(C)C)c2c(OC)c(CCCN)cc(F)c21` [28-4, 3-(3-(2-(dimethylamino)ethyl)-1-ethyl-7-fluoro-4-methoxy-1H-indol-5-yl)propan-1-amine] the value was 6.30 to 9.00.
With `CCn1cc(CCNCc2ccccc2)c2c(OC)cc(F)cc21` [39-4, N-benzyl-2-(1-ethyl-6-fluoro-4-methoxy-1H-indol-3-yl)ethanamine] the figure was 6.30 to 9.00; with `COc1c(F)ccc2c1c(CCN[C@@H]1CCCc3ccccc31)cn2C` [17-17, (R)-N-(2-(5-fluoro-4-methoxy-1-methyl-1H-indol-3-yl)ethyl)-1,2,3,4-tetrahydronaphthalen-1-amine], 6.30 to 9.00; with `CCn1cc(CCN2CCCC2)c2c(O)cc(F)cc21` [11-6, 1-ethyl-6-fluoro-3-(2-(pyrrolidin-1-yl)ethyl)-1H-indol-4-ol], 6.30 to 9.00.
The molecule `CNCCc1cn(C)c2ccc(F)c(OCCOc3ccccc3)c12` [33-14, 2-(5-fluoro-1-methyl-4-(2-phenoxyethoxy)-1H-indol-3-yl)-N-methylethanamine] gave a pEC50 of 6.30 to 9.00.
For `COc1c(F)ccc2c1c(CCN1CCNCC1)cn2C` [17-10, 5-fluoro-4-methoxy-1-methyl-3-(2-(piperazin-1-yl)ethyl)-1H-indole] the value was 5.00 to 6.30.
For `CNCCc1cn(C)c2c(F)cc(CCc3ccccc3)c(OC)c12` [23-4, 2-(7-fluoro-4-methoxy-1-methyl-5-phenethyl-1H-indol-3-yl)-N-methylethanamine] the value was 5.00 to 6.30; for `COc1c(F)ccc2c1c(CCN1CCN(c3cccc(Cl)c3)CC1)cn2C` [17-15, 3-(2-(4-(3-chlorophenyl)piperazin-1-yl)ethyl)-5-fluoro-4-methoxy-1-methyl-1H-indole], 6.30 to 9.00.
For `CNCCc1cn(C)c2ccc(F)c(OCCc3ccccc3C)c12` [33-17, 2-(5-fluoro-1-methyl-4-(2-methylphenethoxy)-1H-indol-3-yl)-N-methylethanamine] the value was 6.30 to 9.00.
In the case of `CCn1cc(CCNCc2ccccc2)c2c(OCc3ccccc3)cc(F)cc21` [26-7, N-benzyl-2-(4-(benzyloxy)-1-ethyl-6-fluoro-1H-indol-3-yl)ethanamine], the negative-log EC50 (pEC50) is 5.00 to 6.30.
As to `CCOc1c(F)ccc2c1c(CCN1CCCC1CO)cn2C` (stereo not drawn) [30-24, (1-(2-(4-ethoxy-5-fluoro-1-methyl-1H-indol-3-yl)ethyl)pyrrolidin-2-yl)methanol], the pEC50 is 5.00 to 6.30.
For `CCN(CC)C(=O)Cn1cc(CCN)c2c(O)c(F)ccc21` [19-6, 2-(3-(2-aminoethyl)-5-fluoro-4-hydroxy-1H-indol-1-yl)-N,N-diethylacetamide] the value was > 5.00; for `CCCn1cc(CCNCc2cccc(C)n2)c2c(O)c(F)ccc21` [17-19, 5-fluoro-3-(2-(((6-methylpyridin-2-yl)methyl)amino)ethyl)-1-propyl-1H-indol-4-ol], > 5.00; for `CNCCc1cn(C)c2ccc(F)c(OCc3ccccc3Cl)c12` [33-23, 2-(4-(2-chlorobenzyloxy)-5-fluoro-1-methyl-1H-indol-3-yl)-N-methylethanamine], 6.30 to 9.00.
For `CCn1cc(CCN(C)C)c2c(OCc3cc(F)ccc3C)cc(F)cc21` [1-17b, 2-(1-ethyl-6-fluoro-4-(5-fluoro-2-methylbenzyloxy)-1H-indol-3-yl)-N,N-dimethylethanamine] the value was 6.30 to 9.00; for `COc1c(F)ccc2c1c(CCNC(C)c1ccccc1)cn2C` (stereo not drawn) [34-10, 2-(5-fluoro-4-methoxy-1-methyl-1H-indol-3-yl)-N-(1-phenylethyl)ethanamine], 6.30 to 9.00; for `CCn1cc(CCN2Cc3ccccc3C2)c2c(O)cc(F)cc21` [31-4, 1-ethyl-6-fluoro-3-(2-(isoindolin-2-yl)ethyl)-1H-indol-4-ol], 5.00 to 6.30.
With `CCn1cc(CCN2CCOCC2)c2c(O)cc(F)cc21` [11-5, 1-ethyl-6-fluoro-3-(2-morpholinoethyl)-1H-indol-4-ol] the figure was 6.30 to 9.00; with `CNCCc1cn(C)c2ccc(F)c(OCc3ccccc3OC(F)(F)F)c12` [33-34, 2-(5-fluoro-1-methyl-4-(2-(trifluoromethoxy)benzyloxy)-1H-indol-3-yl)-N-methylethanamine], 6.30 to 9.00.
`CCCn1cc(CCN)c2c(OCc3ccc(Cl)cc3)c(F)ccc21` [18-3, 2-(4-(4-chlorobenzyloxy)-5-fluoro-1-propyl-1H-indol-3-yl)ethanamine]: the pEC50 is > 5.00.
With `CNCCc1cn(C)c2ccc(F)c(OCc3ccccc3F)c12` [33-24, 2-(5-fluoro-4-(2-fluorobenzyloxy)-1-methyl-1H-indol-3-yl)-N-methylethanamine] the figure was 6.30 to 9.00; with `COc1ccc(-c2cccs2)c2c1c(CCN(C)C)cn2C` [6-7, 2-(4-methoxy-1-methyl-7-(thiophen-2-yl)-1H-indol-3-yl)-N,N-dimethylethanamine], 5.00 to 6.30.

As a reminder, the pEC50 is the negative decadic logarithm of the EC50, by convention in mol/L.

The values above are taken from US8912220B2 (priority 2009, dated 2014).
